One test deals with human and rat GPR-14. Put plainly: Radioligand binding ([125I] h-U-II, HEK-293 cell membranes). The following applies: [125I] h-U-II binding to HEK-293 membranes with cloned GPR-14; species not given. On the procedure: HEK-293 cell membranes containing stable cloned human and rat GPR-14 (20 ug/assay) were incubated with 200 pM [125I] h-U-II (200 Ci/mmol^−1 in the presence of increasing concentrations of test compounds in DMSO (0.1 nM to 10 uM), in a final incubation volume of 200 ul (20 mM Tris-HCl, 5 mM MgCl2). Incubation was done for 30 minutes at room temperature followed by filtration GF/B filters with Brandel cell harvester. ^125I labeled U-II binding was quantitated by gamma counting. Nonspecific binding was defined by ^125I U-II binding in the presence of 100 nM of unlabeled human U-II. Analysis of the data was performed by nonlinear least square fitting.

In the next test the test system is rat-isolated aorta. The following applies: cited from earlier work.

A word on the Ki: it is a dissociation constant, usually derived from enzyme kinetics or from competition with a known ligand.

With `CN(C)CCCOc1ccc(CN2CC[C@H](NC(=O)[C@H](Cc3ccccc3)NC(=O)c3ccc(Br)cc3)C2)cc1` [Example 15], the affinity in the test with human and rat GPR-14 corresponds to a Ki of 390 nM.

For the molecule `CC(C)[C@H](NC(=O)[C@@H]1CSSC[C@H](NC(=O)[C@H](CC(=O)O)NC(=O)[C@@H]2CCCN2C(=O)[C@@H](NC(=O)[C@@H](N)CCC(=O)O)[C@@H](C)O)C(=O)N[C@@H](Cc2ccccc2)C(=O)N[C@@H](Cc2c[nH]c3ccccc23)C(=O)N[C@@H](CCCCN)C(=O)N[C@@H](Cc2ccc(O)cc2)C(=O)N1)C(=O)O` [Human Urotensin-II], the contractile activity entry in the test on rat-isolated aorta is given as “most potent contractile agonist identified to date”.

The values are drawn from patent publication US6514970B1, “Urotensin-II receptor antagonists” (SmithKline Beecham Corporation, priority 1999, dated 2003).
